# Results taken from patent US11808760B1, “System and methods for in vitro structural toxicity testing” (CURI BIO, INC., priority 2019, dated 2023).
# Experiments:
# [1] = test system: liver cells
# [2] = test system: liver cells; assay: AI (CNN) structural toxicity assay, aspirin on liver cells (FIG. 6); assay type: cell-based
# Description: In an exemplary embodiment of the subject technology, a series of 2-class neural network training steps may be used, where a separate model is created for each drug dose compared to its control. As will be appreciated, a high level of sensitivity in detecting structural changes will be generated. As a result, aspects of the subject technology successfully capture obvious phenotypes, such as cell damage and death, as well as subtle phenotypes, such as changes to sarcomere organization or distribution of mitochondria.
# As detailed in the following sections, the input imaging data is processed and may be augmented before training deep neural networks. For each test condition, images from a well are dedicated for validation and the rest are used for training. The performance of each training may be used on the validation wells as the measure of structural change. […] One the other hand, if the achieved accuracy is high, it means that the trained neural network was able to differentiate between the drug-treated images at dose i versus the vehicle images, and the strength of the change is calculated from the distribution of class probabilities.
# A 2-class deep neural network may be trained (530) for image classification. The higher layers of the neural network may be allowed to learn the image features. […]
# [3] = test system: iPSC-derived hepatocytes; assay: AI (CNN) structural toxicity assay, validation z-factor versus dose (FIG. 7); assay type: cell-based; conditions: reference vehicle (DMSO), doses 0.01-30 uM, 18-layer residual network
# Description: When using multi-channel images, the channels may include brightfield images, and fluorescence images captured at different wavelengths in order to visualize different cellular structures. As one example of an experimental setup, the cells are iPSC-derived hepatocytes, the drug under investigation is tamoxifen (a drug with known liver toxicity), dose X is 0.01 uM, dose Y is 0.10 uM, dose Z is 1.00 uM, the cells are fixed and stained with phalloidin-conjugated fluorescent dyes, and the imaging is performed with an inverted fluorescence microscopy system, capturing multiple images at each individual well.
# A 2-class deep neural network may be trained (530) for image classification. The higher layers of the neural network may be allowed to learn the image features. The training may be performed with an initial learning rate of 0.01 for 20 epochs and may be repeated three times. For each training session, the final neural network may be selected from the epoch with the highest validation accuracy.
# To generate the input data to train the neural network, each image may be processed and augmented. […]
smiles,measurement,setting,value
CC(=O)N[C@@H](CS)C(=O)O [acetylcysteine],structural damage of liver cells over time,[1],little damage to the cells
CC(=O)Oc1ccccc1C(=O)O [aspirin],structural changes in the cells,[2],"no, or minimal, structural changes"
COc1cccc2c1C(=O)c1c(O)c3c(c(O)c1C2=O)C[C@@](O)(C(=O)CO)C[C@@H]3O[C@H]1C[C@H](N)[C@H](O)[C@H](C)O1 [doxorubicin],structural damage of liver cells over time,[1],changes in the structural integrity of the cells
CC/C(=C(\c1ccccc1)c1ccc(OCCN(C)C)cc1)c1ccccc1 [tamoxifen],structural damage of liver cells over time,[1],noticeable structural damage
same,dose at which validation z-factors show values above -1 (start of structural changes between drug-treated cells and reference cells),[3],5 µM
